Experimental data: ChEMBL document CHEMBL1123880, “Beta-adrenoceptor antagonist activity of bivalent ligands. 1. Diamide analogues of practolol” (J Med Chem, 1987)

Columns and labels:
Rattus norvegicus = organism: Rattus norvegicus; experiment: Ratio of dissociation constant KD' of rat lung to KD' of rat heart; type: tissue-based
[1] = target: Beta-1 adrenergic receptor (Rattus norvegicus) (UniProt P18090); conditions: Heart, Membrane
Description: Apparent dissociation constant towards beta-1 adrenergic receptor in rat heart membranes using (2-6)x10E-9M of [3AH]-DHA in the presence or absence of 10e-5 M (+/-) propranolol.

[2] = target: Beta-2 adrenergic receptor (Rattus norvegicus) (UniProt P10608); conditions: Lung, Membrane
Sequence of Beta-2 adrenergic receptor (Rattus norvegicus) (P10608 whole entry, looked up): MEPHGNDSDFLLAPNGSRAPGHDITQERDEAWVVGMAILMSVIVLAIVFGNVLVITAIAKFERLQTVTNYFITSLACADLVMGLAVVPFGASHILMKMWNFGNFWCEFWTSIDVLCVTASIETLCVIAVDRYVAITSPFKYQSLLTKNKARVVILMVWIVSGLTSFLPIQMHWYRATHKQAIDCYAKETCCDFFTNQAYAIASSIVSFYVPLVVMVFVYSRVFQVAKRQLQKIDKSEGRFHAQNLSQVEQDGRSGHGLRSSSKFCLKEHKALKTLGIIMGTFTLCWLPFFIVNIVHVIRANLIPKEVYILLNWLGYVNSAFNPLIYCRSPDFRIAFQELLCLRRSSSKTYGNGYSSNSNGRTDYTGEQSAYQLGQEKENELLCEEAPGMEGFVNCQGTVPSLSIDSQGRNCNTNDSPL
Description: Apparent dissociation constant towards beta-2 adrenergic receptor in rat lung membranes using (2-6)x10E-9M of [3AH]-DHA in the presence or absence of 10e-5 M (+/-) propranolol.

Sequence of Beta-1 adrenergic receptor (Rattus norvegicus) (P18090 whole entry, looked up): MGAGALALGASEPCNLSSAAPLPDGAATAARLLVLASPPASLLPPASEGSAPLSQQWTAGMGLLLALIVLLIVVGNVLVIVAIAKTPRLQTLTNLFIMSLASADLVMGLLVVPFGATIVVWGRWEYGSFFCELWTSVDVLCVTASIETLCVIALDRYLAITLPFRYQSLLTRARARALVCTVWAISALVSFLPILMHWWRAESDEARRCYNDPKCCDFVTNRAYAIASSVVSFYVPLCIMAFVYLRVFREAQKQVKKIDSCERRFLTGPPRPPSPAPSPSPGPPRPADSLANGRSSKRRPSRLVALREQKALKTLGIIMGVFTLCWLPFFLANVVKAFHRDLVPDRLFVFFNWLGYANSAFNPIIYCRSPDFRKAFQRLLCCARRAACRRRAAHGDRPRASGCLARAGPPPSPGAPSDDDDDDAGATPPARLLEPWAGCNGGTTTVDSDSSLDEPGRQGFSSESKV

Compound | Ratio (Rattus norvegicus) | KD' [1] [µM] | KD' [2] [µM]
CC(C)NCC(O)COc1ccc(NC(=O)CCC(=O)Nc2ccc(OCC(O)CNC(C)C)cc2)cc1 (configuration not stated) | 1.7 | 16.3 | 28.1
CC(C)NCC(O)COc1ccc(NC(=O)CN2CCN(CC(=O)Nc3ccc(OCC(O)CNC(C)C)cc3)CC2)cc1 (configuration not stated) | 13.4 | 2.1 | 28.1
CC(C)NCC(O)COc1ccc(NC(=O)CCCCCCC(=O)Nc2ccc(OCC(O)CNC(C)C)cc2)cc1 (configuration not stated) | 0.9 | 4.4 | 3.9
CC(C)NCC(O)COc1ccc(NC(=O)CNCCCCCCCCNCC(=O)Nc2ccc(OCC(O)CNC(C)C)cc2)cc1 (configuration not stated) | 7.8 | 0.5 | 3.9
CC(C)NCC(O)COc1ccc(NC(=O)CNCCCCNCC(=O)Nc2ccc(OCC(O)CNC(C)C)cc2)cc1 (configuration not stated) | 5.8 | 32.2 | 186
CC(C)NCC(O)COc1ccc(NC(=O)CCCCCCCCC(=O)Nc2ccc(OCC(O)CNC(C)C)cc2)cc1 (configuration not stated) | 14 | 0.1 | 1.4
CC(=O)Nc1ccc(OCC(O)CNC(C)C)cc1 (configuration not stated) | 5.9 | 6.2 | 36.5
CC(C)NCC(O)COc1ccc(NC(=O)CNCCCCCCNCC(=O)Nc2ccc(OCC(O)CNC(C)C)cc2)cc1 (configuration not stated) | 5.6 | 5 | 28.1
CC(C)NCC(O)COc1ccc(NC(=O)CCCCC(=O)Nc2ccc(OCC(O)CNC(C)C)cc2)cc1 (configuration not stated) | 7.5 | 9 | 67.5
